Assay results from patent publication US8785383B2, “Mast cell stabilizers in the treatment of obesity” (The Brigham and Women's Hospital, Inc., priority 2007, dated 2014).
Entries after “also recorded” stand apart in the source; their conditions may differ.

Tests used:
[1] = tested on: obese and diabetic WT mice; assay: Treatment of established diet-induced obesity and diabetes (four treatment groups); format: in vivo, mouse
Text: To assess the direct participation of mast cells in obesity, we studied mast cell-deficient Kit^W-sh/W-sh mice in diet-induced obesity. While Kit^W-sh/W-sh mice lack mature mast cells due to an inversion mutation of the c-Kit promoter region (Duttlinger, et al., Proc. Nat'l Acad. Sci. USA 92:3754-3758 (1995)), numbers and activities of other leukocytes in blood are normal, permitting probing of mast cell functions in vivo. […] To extend our observations, we fed WT mice a Western diet for 12 weeks to produce obesity and diabetes, and grouped these obese and diabetic mice into four treatment groups: I, continued feeding with a Western diet; II, switched to a chow diet; III, continued feeding with a Western diet together with a daily i.p. injection of DSCG; IV, switched to a chow diet and treated with DSCG.

[2] = tested on: liver, gastrointestinal tract, pancreas
Text: (§1) Wild-type (C57BL/6), Il6^−/− (C57BL/6, N11), and Ifng^−/− (C57BL/6, N10) mice were purchased from the Jackson Laboratories (Bar Harbor, Me.). Congenic Tnf^−/− (C56BL/6, N10) and mast cell-deficient Kit^W-sh/W-sh (C57BL/6, N>10) mice were generated by back-crossing to the C57BL/6 background as described (Sun, et al. Nat. Med. 13:719-724 (2007); Wolters, et al., Clin Exp Allergy 35:82-88 (2005)). The standing committee of Harvard Medical School approved all animal research protocols, and all mice were housed in a pathogen-free facility. To induce obesity, we fed 6-week-old mice (females and males) a Western diet (Research Diet, New Brunswick, N.J.) for 12-20 weeks. Mouse body weight was monitored weekly. […]
Human and mouse WAT and muscle tissues were fixed with 10% formalin overnight and embedded in paraffin, from which 5 μm sections were prepared. […] Researchers blinded to the origin of tissue counted human tryptase-positive and CD117-positive mast cells, and data are presented as cell numbers per mm^2. CD31-positive areas in WAT and muscle were determined using Image-Pro Plus software as described, and data were presented as percentage of CD31-positive areas (Wang, et al., J. Biol. Chem. 281:6020-6029 (2006); Wild, Microvasc Res. 59:368-376 (2000)). […]

[3] = tested on: Western diet-fed wild-type (C57BL/6) mice; assay: Energy expenditure assay; format: in vivo, mouse; details: DSCG-treated WT mice vs untreated WT mice
Text: as §1, with “weekly. By the end of each course of Western diet consumption, we performed glucose tolerance and energy expenditure assays as reported previously (Yang, et al., Nat. Cell Biol. 9:970-977 (2007)). Mouse blood samples were collected for serum adipokine measurement. Subcutaneous, visceral, and brown fat and skeletal muscle were harvested individually for protein extraction and paraffin section preparation. Tissue protein extracts were used for ELISA, immunoblot analysis, and cysteinyl cathepsin active site labeling.” for “weekly.”

[4] = tested on: Western diet-fed wild-type (C57BL/6) mice; assay: Glucose tolerance assay in Western diet-fed mice; format: in vivo, mouse; details: WT mice treated with DSCG
Text: as §1, with “weekly. By the end of each course of Western diet consumption, we performed glucose tolerance and energy expenditure assays as reported previously (Yang, et al., Nat. Cell Biol. 9:970-977 (2007)). Mouse blood samples were collected for serum adipokine measurement. Subcutaneous, visceral, and brown fat and skeletal muscle were harvested individually for protein extraction and paraffin section preparation. Tissue protein extracts were used for ELISA, immunoblot analysis, and cysteinyl cathepsin active site labeling.” for “weekly.”

[5] = tested on: CD117-positive mast cells and CD31-positive areas in WAT and muscle; assay: Immunohistology of WAT and muscle (CD117 mast cells, CD31 microvessels); format: in vivo, mouse; details: DSCG-treated vs untreated mice, same dietary conditions
Protocol: Human and mouse WAT and muscle tissues were fixed with 10% formalin overnight and embedded in paraffin, from which 5 μm sections were prepared. Anti-human mast cell tryptase (mouse monoclonal, 1:100, Dako, TRAPPES CEDEX, France), anti-mouse mast cell CD117 (rat monoclonal, 1:10, eBiosciences, Inc., San Diego, Calif.), and anti-mouse CD31 (rat monoclonal, 1:400, Pharmingen, San Diego, Calif.) immunostained for mast cells and microvessels on WAT, muscle, and liver sections. Researchers blinded to the origin of tissue counted human tryptase-positive and CD117-positive mast cells, and data are presented as cell numbers per mm^2. CD31-positive areas in WAT and muscle were determined using Image-Pro Plus software as described, and data were presented as percentage of CD31-positive areas (Wang, et al., J. Biol. Chem. 281:6020-6029 (2006); Wild, Microvasc Res. 59:368-376 (2000)). Hematoxylin and eosin staining assisted histologic assessment of the GI tract.

[6] = tested on: IL6, TNF-α, IFN-γ, MCP-1, adiponectin, MMP-9, CatS, CatL, leptin in serum and/or WAT; assay: ELISA of serum and WAT adipokines; format: in vivo, mouse
Text: Mouse body weight was monitored weekly. […] Mouse blood samples were collected for serum adipokine measurement.
Frozen mouse WAT was pulverized and lysed in a RIPA buffer (Pierce, Rockford, Ill.) containing a protease inhibitor cocktail (Calbiochem, San Diego, Calif.). Both WAT and serum samples were subjected to ELISA analysis for IL6 (BD Biosciences), TNF-α (PeproTech, Rocky Hill, N.J.), IFN-γ (PeproTech), MCP-1 (PeproTech), adiponectin (R&D Systems), MMP-9 (R&D Systems), CatS (R&D Systems), and CatL (Bender MedSystems Inc, Burlingame, Calif.) according to manufacturers' instructions.

[7] = tested on: mast cell-deficient Kit^W-sh/W-sh mice; assay: DSCG treatment of mast cell-deficient Kit W-sh/W-sh mice on Western diet; format: in vivo, mouse
Text: as §1, with “weekly. By the end of each course of Western diet consumption, we performed glucose tolerance and energy expenditure assays as reported previously (Yang, et al., Nat. Cell Biol. 9:970-977 (2007)). Mouse blood samples were collected for serum adipokine measurement. Subcutaneous, visceral, and brown fat and skeletal muscle were harvested individually for protein extraction and paraffin section preparation. Tissue protein extracts were used for ELISA, immunoblot analysis, and cysteinyl cathepsin active site labeling.” for “weekly.”

[8] = tested on: UCP1, fibronectin, Glut4, insulin receptor; assay: Immunoblot analysis of tissue protein extracts; format: in vivo, mouse
Text: Wild-type (C57BL/6), Il6^−/− (C57BL/6, N11), and Ifng^−/− (C57BL/6, N10) mice were purchased from the Jackson Laboratories (Bar Harbor, Me.). Congenic Tnf^−/− (C56BL/6, N10) and mast cell-deficient Kit^W-sh/W-sh (C57BL/6, N>10) mice were generated by back-crossing to the C57BL/6 background as described (Sun, et al. Nat. Med. 13:719-724 (2007); Wolters, et al., Clin Exp Allergy 35:82-88 (2005)). The standing committee of Harvard Medical School approved all animal research protocols, and all mice were housed in a pathogen-free facility. To induce obesity, we fed 6-week-old mice (females and males) a Western diet (Research Diet, New Brunswick, N.J.) for 12-20 weeks. Mouse body weight was monitored weekly. By the end of each course of Western diet consumption, we performed glucose tolerance and energy expenditure assays as reported previously (Yang, et al., Nat. Cell Biol. 9:970-977 (2007)). Mouse blood samples were collected for serum adipokine measurement. Subcutaneous, visceral, and brown fat and skeletal muscle were harvested individually for protein extraction and paraffin section preparation. Tissue protein extracts were used for ELISA, immunoblot analysis, and cysteinyl cathepsin active site labeling. For immunoblot analysis, 30 μg of proteins were separated on an 8% SDS-PAGE to detect 220 kDa fibronectin (mouse monoclonal, 1:100, NeoMarkers, Fremont, Calif.) and 200 kDa insulin receptor (mouse monoclonal, 1:100, Calbiochem, San Diego, Calif.) or a 12% SDS-PAGE to detect Glut4 (mouse monoclonal, 1:200, R&D Systems, Minneapolis, Minn.), UCP1 (rabbit polyclonal, 1:3000, Abcam, Cambridge, Mass.), actin (mouse monoclonal, 1:500, Abcam), and glyceraldehyde-3-phosphate dehydrogenase (GAPDH, rabbit polyclonal, 1:1000, Santa Cruz Biotechnolog, Santa Cruz, Calif.). For cathepsin active site labeling, 30 μg of proteins were incubated with 1 μl of 600 mM dithiothreitol and 1 μl of [^125I]-JPM in a pH5.5 buffer as previously described. After incubating the reaction mixture at 37° C. for 1 hour, labeled proteins were separated on a 12% SDS-PAGE. Gel was stained with Coomassie blue, destained, dried, and exposed to an x-ray film. The liver and GI tract were harvested for histologic analysis.

[9] = tested on: Western diet-fed wild-type (C57BL/6) mice; assay: Diet-induced obesity, Western diet with daily i.p. DSCG; format: in vivo, mouse
Text: as §1, with “weekly. By the end of each course of Western diet consumption, we performed glucose tolerance and energy expenditure assays as reported previously (Yang, et al., Nat. Cell Biol. 9:970-977 (2007)). Mouse blood samples were collected for serum adipokine measurement. Subcutaneous, visceral, and brown fat and skeletal muscle were harvested individually for protein extraction and paraffin section preparation. Tissue protein extracts were used for ELISA, immunoblot analysis, and cysteinyl cathepsin active site labeling.” for “weekly.”

## O=C(O)c1cc(=O)c2c(OCC(O)COc3cccc4oc(C(=O)O)cc(=O)c34)cccc2o1 [DSCG, disodium cromoglycate]
[1]; group III: obese mice, continued Western diet plus daily i.p. DSCG, eight weeks
  body weight decrease: 12%
[1]; group IV: chow diet plus DSCG, compared among four groups
  glucose tolerance: highest glucose tolerance among the four groups
[1]; group IV: chow diet plus DSCG, eight weeks
  body weight at which mice stabilized: 40˜41 grams
[1]; group IV: obese mice switched to chow diet and treated with DSCG, eight weeks
  body weight decrease: 19%
[2]; Western diet-fed WT mice treated with DSCG
  mast cells or lipid-loaded adipocytes in livers: did not detect mast cells or lipid-loaded adipocytes
[2]; mouse, in vivo
  food/water intake and toxic effect: neither reduced food/water intake nor any toxic effect of DSCG
[3]
  O2 consumption and CO2 production: significantly more O2 consumption and CO2 production
  resting metabolic rate: increased resting metabolic rate
[4]
  glucose tolerance: significantly improved glucose tolerance
[5]
  mast cell numbers in WAT: mast cell numbers similar to WAT from untreated mice
[6]; male and female mice, Western diet, vs WT controls
  serum leptin levels: significantly lower levels
[6]; serum
  CatS levels in serum (ELISA): reduced significantly
[6]; serum and/or WAT, Western diet
  CatL level: did not change significantly
  IFN-γ level: lower levels
  IL6 level: lower levels
  MCP-1 level: lower levels
  TNF-α level: lower levels
  adiponectin level: did not change significantly
  cathepsin S (CatS) level: lower levels
  matrix metalloprotease-9 (MMP-9) level: lower levels
[7]
  glucose tolerance in Kit^W-sh/W-sh mice: did not further change
[7]; Western diet
  body weight (gain) of Kit^W-sh/W-sh mice: did not further affect the body weight; also recorded: did not further change
[8]; DSCG-treated mice
  Glut4 in WAT and muscle: more
  fibronectin in WAT and muscle: more
  insulin receptor (IR) in WAT and muscle: more
[8]; brown fat, vs WT control mice
  brown fat UCP1 expression: obviously higher brown fat UCP1 expression
[9]; male WT mice, Western diet 12 weeks, daily i.p. injection, vs untreated WT
  body weight gain: attenuated body weight gain
[9]; male mice, Western diet, vs untreated WT controls
  total subcutaneous and visceral fat: significantly less total subcutaneous and visceral fat
